# Key:
# [1] = system: rats (conditioned fear, percent time freezing); test: Conditioned Fear Test; type: in vivo, rat; details: for acquisition of conditioned fear / fear extinction: compared to respective vehicle groups; for fear extinction: post conditioning treatment; for percent time freezing on test day 1 / percent time freezing during acquisition / percent time freezing during recall: rats; for percent time freezing on test day 1: after fear conditioning, FIGS. 1 and 2; for percent time freezing on test day 1 / percent time freezing during acquisition: vs vehicle; for percent time freezing during acquisition: acquisition of fear conditioning; for percent time freezing during recall: recall on day 3; for conditioned fear response 24 hours later (day 3 fear recall): treatment 5-60 min following the day 2 conditioning session
# Experimental: Conditioned Fear Test. The conditioning chamber (Hamilton-Kinder, Paolo Alto, Calif.) is equipped to present light and tone cues along with a video camera set up to record behavior. The entire chamber is enclosed in a sound attenuated box. The animals went through 5 days of experimentation: Day 1 Habituation; Day 2 Conditioning; Day 3 Fear recall testing; Day 4 Extinction Training; and Day 5 Extinction Recall Test. Day 1 Habituation: Rats are exposed to the chambers for 10 min. Day 2 Conditioning: Rats are given five presentations of the tone CS (4 kHz, 80 dB, 20 sec) each co-terminating with a 0.8 mA foot shock lasting 0.5-s (US). The first CS-US pairing is presented 120 s into the session and the inter-trial interval (ITI) between CS-US presentations is 105 s on average (range 90-120). Conditioning sessions last about 11 minutes. Day 3 Fear recall tests: Twenty-four hours following the acquisition training, rats are given five 20-s CS presentations in the absence of the US. The first tone is presented 120 s into the session and the inter-trial interval (ITI) between CS-US presentations is 105 s on average (range 90-120). Percent time spent freezing is measured during each tone as an indication of fear recall. Recall test sessions last about 11 minutes. Extinction Training: Rats are exposed to 20 presentations of the CS in the absence of the US (mean ITI 180 s, range 120 to 240 s). Extinction Recall Test: 10 presentations of the CS only (mean ITI 180 s, range 120 to 240 s) are given 24 hrs after extinction.
# [2] = system: cortical neurons stimulated with glutamate and glycine; test: Cell viability (LDH release) assay, glutamate/glycine exposed neurons; type: cell-based; details: FIG. 7; for glutamate receptor induced cell death: primary neuronal slices
# Experimental: Cell viability assays. An LDH release assay was used for the measurement of cell viability. Cortical neurons were stimulated with glutamate and glycine in Mg^2+-free Locke's buffer. The neurons were washed with the buffer and incubated in cell-culture media for 12 h. Subsequently, LDH in the cell-culture media and total LDH after cell lysis were measured according to the manufacturer's instructions. LDH release was defined as ratio of LDH in the media to total LDH and normalized to the fold of control.
# nNOS-PSD95 complex = test: Co-immunoprecipitation of nNOS-PSD95 complex in neuronal cultures; type: cell-based
# Experimental: (§1) Co-immunoprecipitation. Cultured neurons, organotypic hippocampal slice cultures (OHSCs) or the cortices of mice were lysed and centrifuged. The supernatant was preincubated with protein G-Sepharose beads (Sigma-Aldrich) and then centrifuged to obtain the target supernatant. The antibodyconjugated protein G-Sepharose beads were incubated with the target supernatant, centrifuged, washed and heated the beads to elute bound proteins and analyzed proteins by immunoblotting.
# (§2) Coimmunoprecipitation. Neurons were washed in PBS twice, and then lysed in 400 μl buffer A (50 mM Tris-HCl [pH 7.4], 150 mM NaCl, 1 mM EDTA-Na, 1% NP-40, 0.02% sodium azide, 0.1% SDS, 0.5% sodium deoxycholate, 1% PMSF, 1‰ aprotinin, 1‰ leupeptin, and 0.5‰ pepstatin A). The lysates were centrifugated at 12,000×g for 15 min at 4° C. […] Proteins were analyzed by immunoblotting.
# (§3) Samples were immunoprecipitated and analyzed by western blotting with the indicated antibodies (IP for nNOS, and WB for PSD-95), and analyzed for (a) nNOS-PSD-95 complex amounts in the cortex of mice subjected to 90 min MCAO and 30 min reperfusion (n=3), as shown in FIG. 5A in wild type mice after MCAO, and (b) nNOS-PSD-95 complex amounts in neurons exposed to 50 μM glutamate with 10 μM glycine for 30 min (n=3). […]
# nNOS-PSD95 interaction = biological target: T1, nNOS-PSD95 interaction (Mus musculus, UniProt Q9Z0J4); test: Co-immunoprecipitation of nNOS-PSD95 complex in cortex of mice (MCAO/reperfusion); type: in vivo
# T1 construct: from tissue; host or cells: mouse cortex
# Experimental: as §1, §2, §3
# nNOS-CAPON interaction = biological target: T2, nNOS-CAPON interaction (Mus musculus, UniProt Q9Z0J4); test: Co-immunoprecipitation of nNOS-CAPON in ischemic cortexes; type: in vivo; details: 1.5 mg kg-1 i.v. 15 min before MCAO
# T2 construct: from tissue; host or cells: mouse ischemic cortex
# Experimental: (§4) Coimmunoprecipitation. Neurons were washed in PBS twice, and then lysed in 400 μl buffer A (50 mM Tris-HCl [pH 7.4], 150 mM NaCl, 1 mM EDTA-Na, 1% NP-40, 0.02% sodium azide, 0.1% SDS, 0.5% sodium deoxycholate, 1% PMSF, 1‰ aprotinin, 1‰ leupeptin, and 0.5‰ pepstatin A). The lysates were centrifugated at 12,000×g for 15 min at 4° C. The OHSCs or cortex of mice was homogenized in ice-cold lysis buffer A. After lysis for 15 min, samples were centrifuged at 20,000×g for 15 min. The supernatant were preincubated for 1 h at 4° C. with 0.025 ml of protein G-sepharose beads (Sigma-Aldrich) and then centrifuged to remove proteins that adhered nonspecifically to the beads and obtain the target supernatant for following IP experiment. Protein G Sepharose beads were incubated with antibodies (rabbit antibody to nNOS, 1:100, Affinity BoReagents; rabbit antibody to PSD95, 1:100, Cell Signaling Technology; and rabbit antibody to NR2B antibody, 1:200, Chemicon) for 3-4 h. The antibodies-conjugated protein G-sepharose beads and the target supernatant were added for incubation overnight. Immune complexes were isolated by centrifugation, washed 4 times with 0.05 M HEPES buffer, pH 7.1, containing 0.15% Triton X-100, 0.15 M NaCl, and 0.1×10^−3 M sodium orthovanadate, and bound proteins were eluted by heating at 100° C. in loading buffer. Proteins were analyzed by immunoblotting. […]
# PSD95-SynGAP interaction = biological target: T3, PSD95-SynGAP interaction (Mus musculus, UniProt Q62108); test: Co-immunoprecipitation of PSD95-SynGAP in ischemic cortexes; type: in vivo; details: 1.5 mg kg-1 i.v. 15 min before MCAO
# T3 construct: from tissue; host or cells: mouse ischemic cortex
# Experimental: as §4
# [3] = system: NOS (total NOS, nNOS) in homogenates from the cortex of mice; test: NOS activity assay; type: biochemical, mouse; details: 10 μM, 30 min
# Experimental: NOS activity assay. Nitric oxide synthase activities in the hippocampus were measured using a conventional assay. Briefly, the hippocampus was homogenized in ice-cold PBS, pH 7.4, and centrifuged at 10,000 g for 20 min at 4° C. The supernatant was ultracentrifuged at 100,000×g for 15 min at 4° C. using a 300 kDa molecular weight cut-off filter by centrifugation. NOS activity in the filtrates was measured using a commercially available kit (Calbiochem). […] Neuronal NOS activity was computed by subtracting the iNOS activity from the total NOS activity with the inhibited fraction of eNOS. Inducible NOS activity was measured by adding EGTA at 3 mM to chelate free Ca^2+ from the reaction mixture. NOS activities were expressed as unit (U). One U was defined as nanomoles of NO formed in 1 min by 1 mg of protein.
# [4] = system: NMDARs EPSCs of CA1 pyramidal neurons; test: Electrophysiological recordings in hippocampal slices; type: cell-based; details: 1.0 μM, rat hippocampal slices, low-Mg2+ ACSF
# Excerpt: Electrophysiological recordings. […] Briefly, 3 weeks old rats were anesthetized with ethyl ether and decapitated, and whole hippocampus was removed from the brain. Coronal brain slices (350 μm thickness) were cut using a vibrantly blade microtome in ice-cold artificial CSF (ACSF) containing the following (in mM) 126 NaCl, 2.5 KCl, 1 MgCl2, 1 CaCl2, 1.25 KH2PO4, 26 NaHCO3, and 20 glucose. ACSF was bubbled continuously with carbogen (95% O2 and 5% CO2) to adjust the pH to 7.4. Fresh slices were incubated in chamber with carbogenated ACSF and recovered at 34° C. for at least 1.5 h before they were transferred to recording chamber. For the recording of EPSCs, the individual slices were transferred to a recording chamber, and CA1 pyramidal neurons were viewed under upright microscopy (Olympus). […] Excitatory postsynaptic responses of CA1 pyramidal neurons were evoked by stimulating the Schaffer fibers through a constant-current pulse delivered by a bipolar tungsten electrode and recorded with Axopatch-200B amplifier (Molecular Devices). […] The baseline was recorded at least 10 min to ensure the stability of the response. Data were collected with pClamp 9.2 software and analyzed using Clampfit 9.2 (Molecular Devices).
# rats [5] = test: Open Field Test of Anxiety; type: in vivo, rat; details: i.p. 60 min prior to 5 min test; IC87201 4 mg/kg, ZL006 10 mg/kg; vs vehicle
# Experimental: Open Field Test of Anxiety. Adult male rats are evaluated in a conventional open field test. Compounds described herein are evaluated compared to vehicle controls. Animals are observed for duration of time spent in regions of the open field (inner region versus outer region) and line crossings during a […] period following a systemic injection of vehicle or a test compound.
# (§5) Results. Animals are systemically pre-treated by i.p. injections with two different agents that are known to disrupt the nNOS-PSD95 interaction, IC87201 (4 mg/kg) and ZL006 (10 mg/kg), 60 min prior to a 5 min open field test immediately followed by a 5 min social interaction test. […] (Inner time F(2,17)=0.4, p=0.678; Outer time F(2,17)=0.4, p=0.678; Line crossings F(2,17)=1.0, p=0.405; n=6/group).
# rats [6] = test: Social Interaction test; type: in vivo, rat; details: i.p. 60 min prior; IC87201 4 mg/kg, ZL006 10 mg/kg; vs vehicle
# Experimental: Social Interaction. Adult male rats are evaluated in a conventional social interaction assay. Compounds described herein are evaluated compared to vehicle controls. Animals are observed for duration of time spent in regions of open field test (inner region versus outer region) and line crossings during a 60 min period following a systemic injection of vehicle or a test compound.
# as §5
# [7] = system: rats (conditioned fear, percent time freezing); test: Conditioned Fear Test; type: in vivo, rat; details: extinction on day 2, vs vehicle
# [8] = 1.5 mg/kg i.v., 15 and 60 min after dosing; FIG. 8 (Zhou 2010); cited from earlier work
# [9] = system: NMDA-induced increase of cGMP in primary cultured hippocampal neurons; test: NMDA-induced increase in cGMP in primary rat hippocampal neurons; type: cell-based
# Experimental: NMDA-induced increase in cGMP in primary rat hippocampal neurons Neonatal rat hippocampal cultures were prepared according to Brewer (1997). Cells were cultured for 14-21 days before testing. NMDA ([…]) increased cGMP (measured by a cGMP-RIA kit from Perkin-Elmer) within 2-15 min of addition. The NMDA receptor antagonist, MK-801, and a NOS catalytic inhibitor, L-NAME, were used as positive controls.
# NMDA-induced increase in cGMP in primary rat hippocampal neurons. Neonatal rat hippocampal cultures were prepared according to Brewer (1997). Cells were cultured for 14-21 days before testing. NMDA ([…]) increased cGMP (measured by a cGMP-RIA kit from Perkin-Elmer) within 2-15 min of addition. The NMDA receptor antagonist, MK-801, and a NOS catalytic inhibitor, L-NAME, were used as positive controls.
# [10] = biological target: PSD95-cypin protein-protein interaction (Homo sapiens, UniProt P78352); details: plate binding assay (Florio 2009); cited from earlier work
# [11] = system: cGMP production induced by a NO donor; details: (Florio 2009); cited from earlier work
# T1 sequence (Q9Z0J4 whole entry, the tested form may be a part): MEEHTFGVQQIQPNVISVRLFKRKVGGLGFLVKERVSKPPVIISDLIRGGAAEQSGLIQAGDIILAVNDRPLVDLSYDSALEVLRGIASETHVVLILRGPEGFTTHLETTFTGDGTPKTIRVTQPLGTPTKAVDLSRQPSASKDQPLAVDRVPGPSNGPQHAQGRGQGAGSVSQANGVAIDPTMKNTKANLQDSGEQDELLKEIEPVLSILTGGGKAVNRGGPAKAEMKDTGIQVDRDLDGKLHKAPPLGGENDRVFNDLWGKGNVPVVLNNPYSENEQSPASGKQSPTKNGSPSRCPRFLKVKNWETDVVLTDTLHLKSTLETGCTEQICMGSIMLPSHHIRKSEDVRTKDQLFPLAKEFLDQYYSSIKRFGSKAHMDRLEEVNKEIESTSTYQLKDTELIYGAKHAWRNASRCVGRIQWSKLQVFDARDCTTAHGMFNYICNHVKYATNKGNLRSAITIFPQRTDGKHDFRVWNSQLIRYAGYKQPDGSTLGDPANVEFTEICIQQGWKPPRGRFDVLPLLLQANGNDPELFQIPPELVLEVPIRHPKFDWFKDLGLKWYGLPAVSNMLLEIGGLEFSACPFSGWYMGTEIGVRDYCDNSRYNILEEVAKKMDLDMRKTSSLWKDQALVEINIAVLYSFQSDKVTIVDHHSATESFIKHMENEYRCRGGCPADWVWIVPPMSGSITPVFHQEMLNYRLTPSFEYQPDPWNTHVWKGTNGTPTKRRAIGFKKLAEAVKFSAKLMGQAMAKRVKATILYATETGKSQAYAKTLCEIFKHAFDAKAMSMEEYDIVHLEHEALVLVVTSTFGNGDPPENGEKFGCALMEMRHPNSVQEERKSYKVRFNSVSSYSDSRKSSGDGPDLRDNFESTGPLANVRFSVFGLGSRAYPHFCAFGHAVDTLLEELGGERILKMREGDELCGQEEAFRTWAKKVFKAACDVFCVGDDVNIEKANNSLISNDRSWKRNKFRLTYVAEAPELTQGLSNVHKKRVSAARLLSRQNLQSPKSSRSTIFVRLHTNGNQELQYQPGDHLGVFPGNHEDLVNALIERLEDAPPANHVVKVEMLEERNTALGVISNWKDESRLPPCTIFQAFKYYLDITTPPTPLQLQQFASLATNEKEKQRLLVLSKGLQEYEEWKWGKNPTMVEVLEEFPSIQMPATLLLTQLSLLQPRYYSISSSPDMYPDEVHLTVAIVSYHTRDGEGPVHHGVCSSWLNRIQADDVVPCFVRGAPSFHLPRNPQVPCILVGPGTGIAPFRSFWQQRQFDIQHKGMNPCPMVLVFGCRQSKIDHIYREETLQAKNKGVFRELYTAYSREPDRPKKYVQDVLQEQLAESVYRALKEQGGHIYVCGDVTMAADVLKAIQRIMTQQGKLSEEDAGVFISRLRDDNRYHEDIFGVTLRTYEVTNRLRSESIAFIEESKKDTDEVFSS
# T3 sequence (Q62108 whole entry): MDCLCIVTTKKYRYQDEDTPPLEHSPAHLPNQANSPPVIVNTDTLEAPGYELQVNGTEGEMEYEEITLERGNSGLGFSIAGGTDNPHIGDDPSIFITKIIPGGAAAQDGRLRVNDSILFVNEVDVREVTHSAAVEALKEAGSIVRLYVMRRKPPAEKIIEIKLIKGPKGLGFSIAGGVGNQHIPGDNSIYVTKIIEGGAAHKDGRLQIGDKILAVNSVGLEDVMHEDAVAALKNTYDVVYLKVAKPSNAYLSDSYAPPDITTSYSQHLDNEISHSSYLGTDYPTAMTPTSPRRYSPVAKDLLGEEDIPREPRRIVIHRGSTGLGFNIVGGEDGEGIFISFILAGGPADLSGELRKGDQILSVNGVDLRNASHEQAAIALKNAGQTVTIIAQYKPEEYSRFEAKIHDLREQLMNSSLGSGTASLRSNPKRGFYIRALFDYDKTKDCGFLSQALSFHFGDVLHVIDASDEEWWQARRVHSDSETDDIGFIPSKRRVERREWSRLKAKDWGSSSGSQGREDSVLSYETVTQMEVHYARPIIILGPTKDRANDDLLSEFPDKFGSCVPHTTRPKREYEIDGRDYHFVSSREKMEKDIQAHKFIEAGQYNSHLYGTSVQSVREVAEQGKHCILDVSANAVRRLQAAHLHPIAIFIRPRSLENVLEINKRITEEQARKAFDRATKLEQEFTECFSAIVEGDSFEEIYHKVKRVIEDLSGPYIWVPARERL
# T2 sequence (Q9Z0J4 whole entry): as the sequence (Q9Z0J4 whole entry, the tested form may be a part) above
# Sequence of PSD95-cypin protein-protein interaction (P78352 whole entry): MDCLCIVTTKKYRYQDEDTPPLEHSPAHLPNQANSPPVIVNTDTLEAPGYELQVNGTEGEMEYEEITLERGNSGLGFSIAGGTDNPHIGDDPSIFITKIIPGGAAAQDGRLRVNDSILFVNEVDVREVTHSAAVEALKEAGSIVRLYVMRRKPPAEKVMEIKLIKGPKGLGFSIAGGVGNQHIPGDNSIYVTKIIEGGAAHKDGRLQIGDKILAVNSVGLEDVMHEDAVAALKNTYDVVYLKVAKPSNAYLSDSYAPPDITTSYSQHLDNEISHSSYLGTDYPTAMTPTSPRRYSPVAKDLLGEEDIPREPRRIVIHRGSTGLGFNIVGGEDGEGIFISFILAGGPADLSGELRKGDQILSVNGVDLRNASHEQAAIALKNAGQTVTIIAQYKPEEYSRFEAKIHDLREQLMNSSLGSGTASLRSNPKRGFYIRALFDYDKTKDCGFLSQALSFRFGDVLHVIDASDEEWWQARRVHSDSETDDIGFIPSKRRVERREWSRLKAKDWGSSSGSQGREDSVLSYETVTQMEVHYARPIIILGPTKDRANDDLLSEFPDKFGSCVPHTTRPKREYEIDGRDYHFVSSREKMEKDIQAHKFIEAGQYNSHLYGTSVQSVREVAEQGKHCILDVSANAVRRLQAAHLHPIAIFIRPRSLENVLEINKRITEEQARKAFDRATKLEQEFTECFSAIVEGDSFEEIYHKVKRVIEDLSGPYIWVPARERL
Structure (SMILES),acquisition of conditioned fear [1],fear extinction [1],percent time freezing on test day 1 [1],percent time freezing during acquisition [1],percent time freezing during recall ([1]; data not shown),conditioned fear response 24 hours later (day 3 fear recall) [1],glutamate receptor induced cell death [2],duration of time spent in regions of the open field (inner region versus outer region) (rats [5]),number of line crossings (rats [5]),social interaction duration (rats [6]),percent time freezing during extinction [7],other results
O=C(O)c1ccc(NCc2cc(Cl)cc(Cl)c2O)cc1O [ZL006],identical acquisition of conditioned fear,normal patterns of fear extinction,reduced the percent time freezing on test day 1,Neither IC8701 nor ZL006 altered the percent time freezing,Neither IC8701 nor ZL006 altered the percent time freezing,significant attenuation of conditioned fear response,disrupt nNOS downstream signaling,not observed a significant difference,not observed a significant difference,not observed a significant difference,Neither IC8701 nor ZL006 altered the percent time freezing,"freezing, extinction ([1]; 10 mg/kg i.p., after the acquisition day, 1 hour prior to the consolidation day, FIG. 3): improved extinction; freezing, recall ([1]; 10 mg/kg i.p., after the acquisition day, 1 hour prior to the consolidation day, data not shown): improved recall; NMDAR-dependent excitotoxicity (lactate dehydrogenase release) and cerebral ischemia ([2]; cultured neurons exposed to 50 μM glutamate with 10 μM glycine for 30 min): prevents NMDAR-dependent excitotoxicity and cerebral ischemia; co-immunoprecipitation of nNOS-PSD95 complex (nNOS-PSD95 complex): inhibits the in co-immunoprecipitation of nNOS-PSD95 complex; nNOS-PSD95 interaction in the non-ischemic cortex (nNOS-PSD95 interaction; non-ischemic cortex, n=3, ZL006 vs vehicle): did not show a significant effects; ischemic induced increase in nNOS-PSD95 interaction (nNOS-PSD95 interaction; wild type mice, MCAO and reperfusion): blocks the ischemic induced increase in nNOS-PSD95 interaction; co-immunoprecipitation of nNOS-Capon interaction (nNOS-CAPON interaction): does not inhibit; co-immunoprecipitation of PSD95-SynGAP interaction (PSD95-SynGAP interaction): does not inhibit; NOS activity / NOS catalytic activity [3]: does not inhibit NOS activity; NMDARs EPSCs [4]: does not inhibit NMDARs EPSCs; penetration in the CNS (concentrations in serum, CSF and brain tissue) [8]: significant penetration in the CNS"
"Oc1c(Cl)cc(Cl)cc1CNc1ccc2[nH]nnc2c1 [IC87201, 2-((1H-benzo[d][1,2,3]triazol-5-ylamino)methyl)-4,6-dichlorophenol]",identical acquisition of conditioned fear,normal patterns of fear extinction,reduced the percent time freezing on test day 1,Neither IC8701 nor ZL006 altered the percent time freezing,Neither IC8701 nor ZL006 altered the percent time freezing,significant attenuation of conditioned fear response,disrupt nNOS downstream signaling,not observed a significant difference,not observed a significant difference,improvement in social interaction duration,Neither IC8701 nor ZL006 altered the percent time freezing,"attenuation of NMDA-induced increases in cGMP [9]: dose-dependently attenuated NMDA-induced increases in cGMP; IC50 ([9]; Rattus norvegicus, Hippocampal neuron, n=14-20, FIG. 6, read-out: IC50, attenuation of NMDA-induced increase of cGMP): 2700 nM; disruption of PSD95-cypin protein-protein interaction [10]: does not disrupt; effect on cGMP production induced by a NO donor [11]: no effect"

# From patent publication US20150105324A1, “COMPOSITIONS AND METHODS FOR TREATING PTSD AND RELATED DISEASES” (INDIANA UNIVERSITY RESEARCH AND TECHNOLOGY CORPORATION, priority 2012, published 2015)
